The source of these data is ChEMBL document CHEMBL4840337, “A Potent Fluorescent Reversible-Covalent Inhibitor of Cardiac Muscle Contraction” (ACS Med Chem Lett, 2021).

Data set [1] in a line: Reactivity with dithiothreitol in NMR buffer at 50 uM measured up to 24 hrs by 1D H-NMR analysis. The settings on record: time hrs <=24.
The species named for data set [2] is Bos taurus. As to the kind of experiment: Inhibition of actomyosin ATPase activity in bovine cardiac myofibrils assessed as reduction in inorganic phosphate release using ATP as substrate preincubated for 30 mins in presence of pCa 9 followed by substrate addition by malachite green based assay.
The species named for data set [3] is Homo sapiens. Nature of the data set: Binding affinity to BME-bound [15N]-labelled cNTnC (1 to 90 residues)- cTnI (136 to 163 residues) C35S mutant chimeric protein (unknown origin) expressed in Escherichia coli BL21 (DE3) up to 60 uM by 2D 1H, 15N HSQC NMR spectroscopy analysis. Conditions: dose microM <=60.
Data set [4] in a line: Stability of the compound in NMR buffer at 50 uM in the absence of DTT measured after 40 hrs at 30 degC by 1D H-NMR analysis. The data set is classed as physicochemical.
Data set [5] can be described thus: Drug degradation assessed as new spectra with MW of 202 Da formation at 40 uM measured after incubation of 8-month old compound with [15N]-labelled cNTnC (1 to 90 residues)-cTnI (136 to 163 residues) C35S mutant chimeric protein (unknown origin) by 2D 1H, 15N HSQC NMR spectroscopy analysis. The data set is classed as ADME.
Data set [6] can be described thus: Binding affinity to calcium saturated His tagged cNTnC (1 to 90 residues)- cTnI (136 to 163 residues) C35S mutant chimeric protein (unknown origin) assessed as dissociation constant by flourescence spectroscopy analysis. The arrangement: species or system Homo sapiens.
Data set [7] is described as follows: Aqueous solubility of the compound by fluorescence spectroscopy analysis. The data set is classed as physicochemical.
Data set [8] is described as follows: Aqueous solubility of the compound by 1D H-NMR spectroscopy analysis. The data set is classed as physicochemical.
For data set [9], the species on record is Bos taurus. Nature of the data set: Inhibition of actomyosin ATPase activity in bovine cardiac myofibrils assessed as reduction in inorganic phosphate release using ATP as substrate preincubated for 30 mins in presence of pCa 6 followed by substrate addition by malachite green based assay.
The species named for data set [10] is Homo sapiens. Nature of the data set: Binding affinity to [15N]-labelled cNTnC (1 to 90 residues)- cTnI (136 to 163 residues) A-Cys chimeric protein harboring C35S/C84S double mutant (unknown origin) assessed as NMR fast exchange by 2D 1H, 15N HSQC NMR spectroscopy analysis.
The nature of data set [11]: Inhibition of actomyosin ATPase activity in bovine cardiac myofibrils assessed as reduction in inorganic phosphate release using ATP as substrate preincubated for 30 mins in presence of pCa 4.5 followed by substrate addition by malachite green based assay. Further details: species or system Bos taurus.
Data set [12] can be described thus: Covalent binding affinity to [15N]-labelled cNTnC (1 to 90 residues)- cTnI (136 to 163 residues) C35S mutant chimeric protein (unknown origin) expressed in Escherichia coli BL21 (DE3) assessed as dissociation constant by 2D 1H, 15N HSQC NMR spectroscopy analysis. The arrangement: species or system Homo sapiens.
For data set [13], the species on record is Homo sapiens. As to the kind of experiment: Binding affinity to BME-bound [15N]-labelled cNTnC (1 to 90 residues)- cTnI (136 to 163 residues) C35S mutant chimeric protein (unknown origin) expressed in Escherichia coli BL21 (DE3) up to 60 uM in the presence of DTT by 2D 1H, 15N HSQC NMR spectroscopy analysis. The settings on record: dose microM <=60.
Data set [14] can be described thus: Drug degradation assessed as new spectra with MW of 404 Da formation at 40 uM measured after incubation of 8-month old compound with [15N]-labelled cNTnC (1 to 90 residues)-cTnI (136 to 163 residues) C35S mutant chimeric protein (unknown origin) by 2D 1H, 15N HSQC NMR spectroscopy analysis. The data set is classed as ADME.
Data set [15] can be described thus: Binding affinity to calcium saturated His-tagged cNTnC (1 to 90 residues)- cTnI (136 to 163 residues) A-Cys chimeric protein harboring C35S/C84S double mutant (unknown origin) assessed as dissociation constant by flourescence spectroscopy analysis. Further details: species or system Homo sapiens.

Active and inactive are the calls of the source. The rule behind the calls is not given here. Bounds are passed on as bounds.

Regarding `N#C/C(=C\c1ccc(N(c2ccccc2)c2ccccc2)cc1)C(=O)O`, the result in [1] and in [13] was Active. Further, in [2], the inhibition entry is “inactive”. Also, the result in data set [3] and in data set [10] was inactive. Further, the Stability result in data set [4] is “Stable”. Besides, the Drug degradation result in [5] and in data set [14] was “Active” each time. For the same compound, the Kd (commonly a measure of binding affinity in units of concentration) was 0.056 µM in data set [6], under 0.5 µM in data set [12] and 0.045 µM in data set [15]. Besides, the solubility in data set [7] and in data set [8] was under 50 µM throughout. Also, in [9], the inhibition entry was “Active”. The IC50 (usually the concentration needed to halve the response being measured) in [11] was found to be 0.011 µM.
